Drawing on ChEMBL document CHEMBL5360592, “Ursane-Type Triterpenes with a Phenylpropanoid Unit from Camellia ptilosperma and Evaluation of Their Cytotoxic Activities” (J Nat Prod, 2023), this text covers IC50 for six compounds.

Common to all, as to format: functional, cell-based
One test concerns HeLa. The test is described as follows: Cytotoxicity against human HeLa cells assessed as inhibition of cell growth incubated for 24 hrs by MTT assay.
The next test relates to NCI-H460. The test can be described thus: Cytotoxicity against human NCI-H460 cells assessed as inhibition of cell growth incubated for 24 hrs by MTT assay. As to conditions: NCI-H460, 24 h. A general note: Tetrazolium assays rely on reduction of a dye to a coloured formazan, in cell work by metabolically active cells.
In a further test the test system is MDA-MB-231. The test can be described thus: Cytotoxicity against human MDA-MB-231 cells assessed as inhibition of cell growth incubated for 24 hrs by MTT assay. As to conditions: MDA-MB-231, 24 h.
The next test has as its system A549. The test is described as follows: Cytotoxicity against human A549 cells assessed as inhibition of cell growth incubated for 24 hrs by MTT assay. Particulars: A549, 24 h.
The next test relates to HCT-116. The test can be described thus: Cytotoxicity against human HCT-116 cells assessed as inhibition of cell growth incubated for 24 hrs by MTT assay. Particulars: HCT-116, 24 h.
Another test deals with HT-29. The test can be described thus: Cytotoxicity against human HT-29 cells assessed as inhibition of cell growth incubated for 24 hrs by MTT assay. Particulars: HT-29, 24 h.
Test [1] is described as follows: Cytotoxicity against mouse LL2 cells assessed as inhibition of cell growth incubated for 24 hrs by MTT assay. Particulars: Lewis lung carcinoma.
The next test relates to CT26. The test is described as follows: Cytotoxicity against mouse CT26 cells assessed as inhibition of cell growth incubated for 24 hrs by MTT assay. As to conditions: CT26, 24 h.
Test [2] can be described thus: Cytotoxicity against mouse Hepa1-6 cells assessed as inhibition of cell growth incubated for 24 hrs by MTT assay. Particulars: Hepa1-6, 24 h.

By IC50 is commonly meant the concentration needed to halve the response being measured. Regarding `COC(=O)[C@@]1(C)[C@@H]2CC[C@]3(C)[C@H]([C@@H]4O[C@@H](c5ccc(O)c(OC)c5)[C@@H](C)OC4=C4[C@@H]5[C@@H](C)[C@H](C)CC[C@]5(C)CC[C@]43C)[C@@]2(C)CC[C@@H]1O`, the IC50 is 8.1 µM with HeLa; over 10 µM in the test with NCI-H460; over 10 µM with MDA-MB-231; over 10 µM in the test on A549; over 10 µM in the test with HCT-116; 8.5 µM in the test with HT-29. Also, the IC50 in [1] is over 10 µM; in the test with CT26 it was over 10 µM; in test [2] it was 4.1 µM.

Consider `COC(=O)[C@@]1(C)[C@@H]2CC[C@]3(C)[C@H]([C@@H]4O[C@H](c5ccc(O)c(OC)c5)[C@@H](C)OC4=C4[C@@H]5[C@@H](C)[C@H](C)CC[C@]5(C)CC[C@]43C)[C@@]2(C)CC[C@@H]1O`, for which the IC50 is over 10 µM in the test with HeLa; over 10 µM in the test with NCI-H460; 4.9 µM in the test with MDA-MB-231; over 10 µM with A549; 8.2 µM in the test on HCT-116; over 10 µM in the test with HT-29. Moreover, the half-inhibitory concentration (IC50) was over 10 µM in test [1], 9.1 µM in the test with CT26 and over 10 µM in test [2].

Regarding `COC(=O)[C@@]1(C)[C@@H]2CC[C@]3(C)[C@H]([C@@H]4O[C@H](C)[C@@H](c5ccc(O)c(OC)c5)OC4=C4[C@@H]5[C@@H](C)[C@H](C)CC[C@]5(C)CC[C@]43C)[C@@]2(C)CC[C@@H]1O`, the IC50 with HeLa was over 10 µM; in the test with NCI-H460, over 10 µM; with MDA-MB-231, 9.3 µM; with A549 it was over 10 µM; in the test with HCT-116, 7.5 µM; in the test on HT-29, over 10 µM. Further, the IC50 (in test [1]; in the test with CT26; in [2]) was over 10 µM each time.

Consider `COC(=O)[C@]1(C)[C@@H]2CC[C@]3(C)[C@H]([C@@H]4O[C@H](CO)[C@@H](c5ccc(O)c(OC)c5)OC4=C4[C@@H]5[C@@H](C)[C@H](C)CC[C@]5(C)CC[C@]43C)[C@@]2(C)CC[C@@H]1O`, for which the IC50 in the test on HeLa, with NCI-H460, in the test with MDA-MB-231, with A549, in the test with HCT-116 and with HT-29 was over 10 µM in each case. In addition, the IC50 in test [1] is over 10 µM; in the test on CT26, 8.2 µM; in [2], over 10 µM.

For the compound `COc1cc([C@H]2O[C@@H]3C(=C4[C@@H]5[C@@H](C)[C@H](C)CC[C@]5(C)CC[C@@]4(C)[C@]4(C)CC[C@H]5C(C)(C)[C@@H](O)CC[C@]5(C)[C@@H]34)O[C@@H]2CO)ccc1O`, the IC50 is 5.2 µM in the test on HeLa; over 10 µM with NCI-H460; 2.2 µM in the test on MDA-MB-231; over 10 µM in the test on A549; 5.7 µM with HCT-116; 6.8 µM in the test with HT-29. The IC50 is over 10 µM in [1], 7.5 µM in the test on CT26 and 4.7 µM in test [2].

As for `COc1cc([C@H]2OC3=C4[C@@H]5[C@@H](C)[C@H](C)CC[C@]5(C)CC[C@@]4(C)[C@]4(C)CC[C@H]5C(C)(C)[C@@H](O)CC[C@]5(C)[C@H]4[C@@H]3O[C@@H]2CO)ccc1O`, the IC50 with HeLa was 0.7 µM; in the test on NCI-H460 it was over 10 µM; in the test on MDA-MB-231 it was 2.7 µM; with A549 it was over 10 µM; with HCT-116 it was 1.4 µM; in the test on HT-29, 5.1 µM. The figures for the IC50 (in test [1]; with CT26; in test [2]) were over 10 µM, over 10 µM and 2.7 µM, respectively.
